Paper PMC11787452, “Substrate and inhibitor specificity of Plasmodium nucleoside transporters ENT1 orthologs” (The Journal of Biological Chemistry, 2024)
Values joined by “and” are separate entries in the source; they are usually repeats but may differ in a detail not shown here. Identical values can stand only once. Like-named read-outs stand apart in the source and are kept apart here. Each block holds one compound with its values, some of them ahead of it.

Tests used:
PfENT1 [1] = biological target: T1, PfENT1 (Plasmodium falciparum, UniProt Q8IDM6); experiment: ITC binding to PfENT1; details: for Kd: 25 °C, 25 mM MES pH 6.0, 150 mM NaCl, 0.05% DDM
T1 construct: 10xHis (N); made in house; host or cells: Sf9 insect cells (baculovirus)
T1 sequence (Q8IDM6 whole entry): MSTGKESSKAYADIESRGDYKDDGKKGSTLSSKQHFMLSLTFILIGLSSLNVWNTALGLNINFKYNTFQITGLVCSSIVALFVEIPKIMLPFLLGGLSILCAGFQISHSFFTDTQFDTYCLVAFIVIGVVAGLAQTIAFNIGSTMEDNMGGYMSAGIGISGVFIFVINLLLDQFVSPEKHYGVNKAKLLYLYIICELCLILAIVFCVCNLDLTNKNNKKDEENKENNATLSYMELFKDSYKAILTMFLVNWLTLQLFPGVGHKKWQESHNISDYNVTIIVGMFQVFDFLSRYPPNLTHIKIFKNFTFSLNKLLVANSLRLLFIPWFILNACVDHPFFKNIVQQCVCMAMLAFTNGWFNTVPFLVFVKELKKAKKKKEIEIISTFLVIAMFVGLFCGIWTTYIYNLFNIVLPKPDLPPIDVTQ
Protocol: (§1) All the constructs were subcloned and inserted into a modified pFastBac with an N-terminal 10 × His tag. The baculovirus was generated in DH10Bac for recombinant protein expression. After 72 h of infection, Sf9 insect cells were harvested. For structural determination of the PfENT1 protein, Sf9 cells were solubilized in buffer containing 25 mM MES (pH 6.0), 150 mM NaCl, 2% (w/v) n-dodecyl-β-D-maltopyranoside (DDM), and protease inhibitor cocktail (0.8 μM aprotinin, 2 μM pepstatin, and 5 μg/ml leupeptin) at 4 °C for 2 h. After centrifugation at 18,000 rpm for 45 min at 4 °C, the detergent-soluble supernatant was collected via centrifugation at 4 °C for 60 min and incubated with Ni-NTA resin (QIAGEN) at 4 °C for 20 min. The resin was further washed with 25 mM MES pH 6.0, 150 mM NaCl, 10 mM imidazole, and 0.05% (w/v) DDM and eluted with buffer containing 25 mM MES pH 6.0, 150 mM NaCl, 300 mM imidazole, and 0.05% (w/v) DDM. The protein was further purified via size-exclusion chromatography (Superdex 200 Increase 10/300; GE Healthcare) in buffer containing 25 mM MES (pH 6.0), 150 mM NaCl, and 0.05% (w/v) DDM. The peak fractions were pooled and concentrated to 10∼50 μM for the nucleoside-binding assay. The protein purification of the bacterial nucleoside transporter NupG was performed as described in previous studies ([35]).
(§2) […] binding to ENTs was measured at 25 °C via a MicroCal PEAQ-ITC. The purified ENT protein was concentrated to 25 to 50 μM for ITC experiments. The nucleoside was diluted to 5 mM via the same buffer employed for protein purification, which consisted of 25 mM MES (pH 6.0), 150 mM NaCl, and 0.05% DDM. The inhibitor was diluted to 250 μM via the same buffer employed for protein purification, which consisted of 25 mM MES (pH 6.0), 150 mM NaCl, and 0.05% DDM. All the titrations were repeated three times.

PvENT1 = biological target: T2, PvENT1 (Plasmodium vivax, UniProt A5K8B0); experiment: ITC binding to PvENT1; details: for Kd: 25 °C, 25 mM MES pH 6.0, 150 mM NaCl, 0.05% DDM
T2 construct: 10xHis (N); made in house; host or cells: Sf9 insect cells (baculovirus)
T2 sequence (A5K8B0 1-416): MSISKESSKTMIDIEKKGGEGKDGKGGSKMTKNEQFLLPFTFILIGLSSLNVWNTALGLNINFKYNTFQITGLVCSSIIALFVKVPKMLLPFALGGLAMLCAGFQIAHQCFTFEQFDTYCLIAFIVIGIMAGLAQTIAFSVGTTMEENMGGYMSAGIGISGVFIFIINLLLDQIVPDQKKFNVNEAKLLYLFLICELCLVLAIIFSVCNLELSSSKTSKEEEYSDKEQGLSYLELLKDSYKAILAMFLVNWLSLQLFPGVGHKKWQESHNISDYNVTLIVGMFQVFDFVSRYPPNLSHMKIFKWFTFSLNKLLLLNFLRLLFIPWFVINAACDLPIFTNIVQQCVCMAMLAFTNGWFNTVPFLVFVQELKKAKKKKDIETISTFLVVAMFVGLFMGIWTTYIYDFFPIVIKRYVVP
Protocol: as §1, §2

PbENT1 = biological target: T3, PbENT1 (Plasmodium berghei, UniProt A0A509AYF4); experiment: ITC binding to PbENT1; details: for Kd: 25 °C, 25 mM MES pH 6.0, 150 mM NaCl, 0.05% DDM
T3 construct: 10xHis (N); made in house; host or cells: Sf9 insect cells (baculovirus)
T3 sequence (A0A509AYF4 1-412): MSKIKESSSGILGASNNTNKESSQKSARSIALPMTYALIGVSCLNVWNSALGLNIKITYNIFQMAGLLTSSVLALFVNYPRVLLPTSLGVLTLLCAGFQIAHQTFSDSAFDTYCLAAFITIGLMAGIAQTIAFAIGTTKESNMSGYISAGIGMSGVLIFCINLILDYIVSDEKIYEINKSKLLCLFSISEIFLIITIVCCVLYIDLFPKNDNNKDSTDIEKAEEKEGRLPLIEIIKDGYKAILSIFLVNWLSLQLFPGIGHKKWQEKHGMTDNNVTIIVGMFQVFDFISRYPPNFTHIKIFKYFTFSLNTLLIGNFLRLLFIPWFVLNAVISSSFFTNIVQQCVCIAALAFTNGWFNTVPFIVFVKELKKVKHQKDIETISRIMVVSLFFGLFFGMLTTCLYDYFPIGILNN
Protocol: as §1, §2

PfENT1I70M = biological target: T4, PfENT1I70M (Plasmodium falciparum, UniProt Q8IDM6, I70M); experiment: ITC binding to PfENT1I70M
T4 construct: 10xHis (N); made in house; host or cells: Sf9 insect cells (baculovirus)
T4 sequence (Q8IDM6 1-422 I70M): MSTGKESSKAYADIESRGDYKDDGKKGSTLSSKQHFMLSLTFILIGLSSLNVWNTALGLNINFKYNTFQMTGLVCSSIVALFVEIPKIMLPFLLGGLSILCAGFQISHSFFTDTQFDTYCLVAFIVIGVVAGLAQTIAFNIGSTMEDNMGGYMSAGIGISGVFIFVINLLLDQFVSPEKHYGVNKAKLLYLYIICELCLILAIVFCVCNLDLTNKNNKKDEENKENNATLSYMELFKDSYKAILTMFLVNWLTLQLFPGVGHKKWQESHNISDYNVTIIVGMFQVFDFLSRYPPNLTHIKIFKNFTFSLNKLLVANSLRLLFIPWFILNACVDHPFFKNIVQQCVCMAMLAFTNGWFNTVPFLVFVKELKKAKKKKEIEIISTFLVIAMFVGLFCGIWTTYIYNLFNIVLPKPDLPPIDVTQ
Protocol: as §1, with “The protein purification of the bacterial nucleoside transporter NupG was performed as described in previous studies ([35]).” left out
(§3) […] binding to ENTs was measured at 25 °C via a MicroCal PEAQ-ITC. […]

PbENT1M64I = biological target: T5, PbENT1M64I (Plasmodium berghei, UniProt A0A509AYF4, M64I); experiment: ITC binding to PbENT1M64I
T5 construct: 10xHis (N); made in house; host or cells: Sf9 insect cells (baculovirus)
T5 sequence (A0A509AYF4 whole entry M64I): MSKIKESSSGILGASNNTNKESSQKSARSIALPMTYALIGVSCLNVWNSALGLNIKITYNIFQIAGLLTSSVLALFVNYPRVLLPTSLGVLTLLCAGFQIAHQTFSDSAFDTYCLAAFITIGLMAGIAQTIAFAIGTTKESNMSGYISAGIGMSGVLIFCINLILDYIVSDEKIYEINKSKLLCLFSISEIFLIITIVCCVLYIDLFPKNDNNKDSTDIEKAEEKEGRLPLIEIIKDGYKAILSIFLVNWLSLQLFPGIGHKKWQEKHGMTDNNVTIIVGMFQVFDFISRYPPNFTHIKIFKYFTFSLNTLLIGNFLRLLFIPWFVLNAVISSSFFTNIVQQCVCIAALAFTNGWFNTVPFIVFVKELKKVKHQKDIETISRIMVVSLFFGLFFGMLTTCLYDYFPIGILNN
Protocol: as §1, with “The protein purification of the bacterial nucleoside transporter NupG was performed as described in previous studies ([35]).” left out
as §3

PbENT1C43S = biological target: T6, PbENT1C43S (Plasmodium berghei, UniProt A0A509AYF4, C43S); experiment: ITC binding to PbENT1C43S
T6 construct: 10xHis (N); made in house; host or cells: Sf9 insect cells (baculovirus)
T6 sequence (A0A509AYF4 whole entry C43S): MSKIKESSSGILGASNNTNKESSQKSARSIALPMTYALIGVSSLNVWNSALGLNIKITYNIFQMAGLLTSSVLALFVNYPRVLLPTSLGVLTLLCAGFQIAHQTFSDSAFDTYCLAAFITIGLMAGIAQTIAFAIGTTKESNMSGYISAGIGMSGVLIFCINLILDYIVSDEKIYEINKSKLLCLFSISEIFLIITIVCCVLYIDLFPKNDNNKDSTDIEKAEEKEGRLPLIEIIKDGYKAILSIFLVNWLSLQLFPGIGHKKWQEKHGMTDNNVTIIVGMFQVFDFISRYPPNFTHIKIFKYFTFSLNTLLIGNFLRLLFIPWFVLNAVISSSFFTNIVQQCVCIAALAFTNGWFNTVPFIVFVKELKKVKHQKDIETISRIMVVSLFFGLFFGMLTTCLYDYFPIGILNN
Protocol: as §1, §2

PfENT1S49C = biological target: T7, PfENT1S49C (Plasmodium falciparum, UniProt Q8IDM6, S49C); experiment: ITC binding to PfENT1S49C
T7 construct: 10xHis (N); made in house; host or cells: Sf9 insect cells (baculovirus)
T7 sequence (Q8IDM6 whole entry S49C): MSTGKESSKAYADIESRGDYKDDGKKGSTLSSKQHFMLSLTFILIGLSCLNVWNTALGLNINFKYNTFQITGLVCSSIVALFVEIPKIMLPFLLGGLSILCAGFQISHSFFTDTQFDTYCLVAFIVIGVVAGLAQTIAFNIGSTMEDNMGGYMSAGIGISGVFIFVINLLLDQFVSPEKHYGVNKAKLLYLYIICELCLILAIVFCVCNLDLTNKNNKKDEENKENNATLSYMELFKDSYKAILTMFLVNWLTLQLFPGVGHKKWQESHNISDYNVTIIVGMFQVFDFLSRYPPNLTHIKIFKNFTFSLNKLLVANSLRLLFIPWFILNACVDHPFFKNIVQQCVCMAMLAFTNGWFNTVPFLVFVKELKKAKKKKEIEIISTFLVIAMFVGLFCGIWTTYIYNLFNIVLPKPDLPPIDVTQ
Protocol: as §1, with “The protein purification of the bacterial nucleoside transporter NupG was performed as described in previous studies ([35]).” left out
as §3

PfENT1 [2] = biological target: T1, PfENT1; set-up: method as in PMID 36977719; details: competition assay; cited from earlier work
[3] = read-out: Kd (binding affinity for PvENT1)
[4] = read-out: Kd (binding affinity for PbENT1)
[5] = read-out: Kd (binding affinity for PfENT1)

Compound: Nc1nc2c(ncn2[C@@H]2O[C@H](CO)[C@@H](O)[C@H]2O)c(=O)[nH]1 [guanosine]
Kd (PfENT1 [1]; Kd (binding affinity for PfENT1)): ~179 µM | Kd (PvENT1; [3]): ~49.3 µM and 49.3 µM and 50.5 µM and 46.3 µM | Kd (PbENT1; [4]): 15.6 µM and 8.69 µM and 11.3 µM

Compound: O=c1[nH]cnc2c1ncn2[C@@H]1O[C@H](CO)[C@@H](O)[C@H]1O [inosine]
affinity for PfENT1I70M (in words) (PfENT1I70M; compared with PfENT1): comparable affinity | binding affinity of PbENT1M64I relative to WT PbENT1 (PbENT1M64I): fivefold lower | thermodynamic pattern of binding to PfENT1 (PfENT1 [1]): entropy-driven | Kd (PfENT1 [1]; [5]): 77.3 µM | ΔH of binding to PfENT1 (PfENT1 [1]; endothermic reaction): > 0 | thermodynamic pattern of binding to PvENT1 (PvENT1): enthalpy-entropy compensation | ΔH of binding to PvENT1 (PvENT1; exothermic reaction): < 0 | binding affinity of PbENT1C43S relative to WT PbENT1 (PbENT1C43S): fivefold lower | binding to PfENT1S49C (in words) (PfENT1S49C): complete abolishment | thermodynamic pattern of binding to PbENT1 (PbENT1): enthalpy-driven | ΔH of binding to PbENT1 (PbENT1; exothermic reaction): < 0

Compound: OC[C@H]1O[C@@H](n2cnc3c(O)ncnc32)[C@H](O)[C@@H]1O [inosine]
Kd (PfENT1I70M; 25 °C, pH 6.0): 58.3 µM and 78.5 µM and 65.3 µM | Kd (PbENT1M64I; Kd (binding to PbENT1M64I), 25 °C, pH 6.0): 61.6 µM and 53.5 µM and 58.9 µM | Kd (PfENT1 [1]; [5]): ~64.2 µM | Kd (PvENT1; [3]): ~146 µM and 146 µM and 161 µM and 173 µM | Kd (PbENT1C43S; Kd (binding to PbENT1C43S), 25 °C, pH 6.0): 51.4 µM and 55.9 µM and 58.4 µM | Kd (PbENT1; [4]): 13.6 µM and 6.11 µM and 13.5 µM

Compound: Cc1cn([C@H]2C[C@H](O)[C@@H](CO)O2)c(=O)[nH]c1=O [thymidine]
inhibition of the inosine transport activity of PfENT1 (PfENT1 [2]): effectively inhibited | binding affinity for PfENT1 (in words) (PfENT1 [1]; PfENT1 WT): undetectable | binding affinity for PbENT1 (in words) (PbENT1): weak

binding affinity for PbENT1 (in words) (PbENT1): No binding affinity was detected
Compound: O=c1ccn([C@@H]2O[C@H](CO)[C@@H](O)[C@H]2O)c(=O)[nH]1 [uridine]

Compound: O=c1[nH]c(=O)c2ncn([C@@H]3O[C@H](CO)[C@@H](O)[C@H]3O)c2[nH]1 [xanthosine]
Kd (PvENT1; Kd (binding affinity for PvENT1)): 114 µM and 122 µM and 107 µM | Kd (PbENT1; Kd (binding affinity for PbENT1)): 88.2 µM and 92.8 µM and 95.5 µM
